Assay results published in PubChem BioAssay AID330 (DTP/NCI, 2004).
Several values for one entry are separate records, joined by “and”; a condition that tells them apart may be missing. Identical values can stand only once. Toxic doses and inconclusive results are not listed. Peptide text beside a SMILES is read from it. * marks the point of attachment. Trt = c1ccc(C(c2ccccc2)(c2ccccc2)*)cc1; Cbz = O=C(OCc1ccccc1)*

Tested on: P388 leukemia ip, CD2F1 mice, survival T/C
Test: NCI In Vivo Anticancer Drug Screen. Data for tumor model P388 Leukemia (intraperitoneal) in CD2F1 (CDF1) mice
Details: endpoint: median survival time, higher = longer survival
Summary of the method: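 Mice carrying the transplanted tumor received test compound or vehicle. Survival was recorded in each group, and the value is the treated-group measurement divided by that of the vehicle-treated control group.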

[1] = dose: 50.0 mg/kg/injection, schedule: Q01DX009 (ip), vehicle: saline
[2] = dose: 60.0 mg/kg/injection, schedule: Q01DX005 (ip), vehicle: Klucel (hydroxypropylcellulose) (HPC)
[3] = dose: 120.0 mg/kg/injection, schedule: Q01DX005 (ip), vehicle: Klucel (hydroxypropylcellulose) (HPC)
[4] = dose: 240.0 mg/kg/injection, schedule: Q01DX005 (ip), vehicle: Klucel (hydroxypropylcellulose) (HPC)
[5] = dose: 60.0 mg/kg/injection, schedule: Q01DX005 (ip), vehicle: saline with Tween-80
[6] = dose: 120.0 mg/kg/injection, schedule: Q01DX005 (ip), vehicle: saline with Tween-80
[7] = dose: 100.0 mg/kg/injection, schedule: Q01DX001 (ip), vehicle: Klucel (hydroxypropylcellulose) (HPC)
[8] = dose: 200.0 mg/kg/injection, schedule: Q01DX001 (ip), vehicle: Klucel (hydroxypropylcellulose) (HPC)
[9] = dose: 400.0 mg/kg/injection, schedule: Q01DX001 (ip), vehicle: Klucel (hydroxypropylcellulose) (HPC)

`CCOc1ccc2c(O)csc2c1` was tested. Which T/C (dose: 100.0 mg/kg/injection, schedule: Q04DX003 (ip), vehicle: saline with Tween-80) did it give?
The T/C was 100 % of control.

And the T/C (dose: 200.0 mg/kg/injection, schedule: Q04DX003 (ip), vehicle: saline with Tween-80)?
Its T/C is 100 % of control.

What about the T/C (dose: 400.0 mg/kg/injection, schedule: Q04DX003 (ip), vehicle: saline with Tween-80) of the same compound?
Its T/C is 90 % of control.

`COc1ccccc1-n1cc[n+](C)c1/C=N/O` was tested. Which T/C (dose: 12.5 mg/kg/injection, schedule: Q01DX009 (ip), vehicle: saline with Tween-80) did it give?
Its T/C is 86 % of control.

What about the T/C (dose: 25.0 mg/kg/injection, schedule: Q01DX009 (ip), vehicle: saline with Tween-80) of the same compound?
Its T/C is 90 % of control.

And the T/C [1]?
Its T/C is 99 % of control.

How did the T/C (dose: 12.5 mg/kg/injection, schedule: Q01DX009 (ip), vehicle: water) turn out when `COc1cccc(C(=O)c2ccncc2)c1OC` was run?
Its T/C is 100 % of control.

And the T/C (dose: 25.0 mg/kg/injection, schedule: Q01DX009 (ip), vehicle: water)?
Its T/C is 100 % of control.

What about the T/C (dose: 50.0 mg/kg/injection, schedule: Q01DX009 (ip), vehicle: water) of the same compound?
Its T/C is 103 % of control.

And the T/C (dose: 100.0 mg/kg/injection, schedule: Q01DX009 (ip), vehicle: water)?
Its T/C is 104 % of control.

What about the T/C (dose: 200.0 mg/kg/injection, schedule: Q01DX009 (ip), vehicle: water) of the same compound?
Its T/C is 100 % of control.

What does the source list for `CC(=O)N1C(=O)CC23c4cccc([N+](=O)[O-])c4C(=O)N2CCCN13` (stereo not given)?
T/C [2]: 97 % of control; T/C [3]: 97 % of control; T/C [4]: 91 % of control

Which T/C [5] does the source give for `COC(=O)N(c1ccccc1)c1ccccn1` here?
The T/C was 106 % of control.

And the T/C [6]?
Its T/C is 97 % of control.

And the T/C (dose: 240.0 mg/kg/injection, schedule: Q01DX005 (ip), vehicle: saline with Tween-80)?
The T/C was 100 % of control.

For `O=C(Nc1ccc(CSc2ccc(Cl)cc2)o1)N1CCOCC1`, which T/C (dose: 50.0 mg/kg/injection, schedule: Q01DX005 (ip), vehicle: saline with Tween-80) is on record?
The T/C was 107 % of control.

What about the T/C (dose: 100.0 mg/kg/injection, schedule: Q01DX005 (ip), vehicle: saline with Tween-80) of the same compound?
The T/C was 99 % of control.

And the T/C (dose: 200.0 mg/kg/injection, schedule: Q01DX005 (ip), vehicle: saline with Tween-80)?
The T/C was 98 % of control.

For `COC(=O)C(CC(C)C)NC(=O)C(N)CSC(c1ccccc1)(c1ccccc1)c1ccccc1` (stereo not given) (H-Cys(Trt)-Leu-OMe; configuration not given here), which T/C [2] is on record?
Its T/C is 113 % of control.

How did the T/C [7] turn out when `Cc1cccc(/C=N/N2CCN(C(c3ccccc3)c3ccccc3)CC2)n1` was run?
Its T/C is 100 % of control.

And the T/C [8]?
The T/C was 97 % of control.

And the T/C [9]?
The T/C was 100 % of control.

Which results are given for `CCCCCCSc1nn(CCC#N)c(=O)[nH]c1=O`?
T/C (dose: 25.0 mg/kg/injection, schedule: Q01DX005 (ip), vehicle: distilled water + alcohol): 103 % of control; T/C (dose: 50.0 mg/kg/injection, schedule: Q01DX005 (ip), vehicle: distilled water + alcohol): 108 % of control; T/C (dose: 100.0 mg/kg/injection, schedule: Q01DX005 (ip), vehicle: distilled water + alcohol): 103 % of control; T/C (dose: 200.0 mg/kg/injection, schedule: Q01DX005 (ip), vehicle: distilled water + alcohol): 92 % of control

How did the T/C (dose: 50.0 mg/kg/injection, schedule: Q01DX009 (ip), vehicle: other) turn out when `CCN(CC)C1CC(C)(O)Cc2cc3c(c(O)c21)C(=O)c1c(O)cc2c(c1C3=O)OC1OC2(C)C(O)C(N(C)C)C1O` (stereo not given) was run?
Its T/C is 93 % of control.

`CCN1/C(=C/C=C/C=C/c2sc3ccccc3[n+]2CC)Sc2ccccc21` was tested. Which T/C (dose: 0.05 mg/kg/injection, schedule: Q01DX009 (ip), vehicle: saline) did it give?
The T/C was 123 % of control.

And the T/C (dose: 0.06 mg/kg/injection, schedule: Q01DX009 (ip), vehicle: saline)?
Its T/C is 124 % of control.

What about the T/C (dose: 0.08 mg/kg/injection, schedule: Q01DX009 (ip), vehicle: saline) of the same compound?
Its T/C is 107 % of control.

And the T/C (dose: 0.12 mg/kg/injection, schedule: Q01DX009 (ip), vehicle: saline)?
Its T/C is 117 % of control and 122 % of control.

And the T/C (dose: 0.25 mg/kg/injection, schedule: Q01DX009 (ip), vehicle: saline)?
Its T/C is 123 % of control.

What about the T/C (dose: 0.28 mg/kg/injection, schedule: Q01DX009 (ip), vehicle: saline) of the same compound?
The T/C was 123 % of control.

Which T/C [7] does the source give for `N=C(N)c1ccc2oc(/C=C/c3nc4ccc(C(=N)N)cc4[nH]3)cc2c1` here?
The T/C was 98 % of control.

And the T/C [8]?
Its T/C is 96 % of control.

And the T/C [9]?
The T/C was 98 % of control.

Which T/C (dose: 6.25 mg/kg/injection, schedule: Q01DX005 (ip), vehicle: saline + Tween-80 + alcohol) does the source give for `C=C[C@@]1(C)CC(=O)[C@]2(O)[C@@]3(C)[C@@H](O)CCC(C)(C)[C@@H]3[C@H](O)[C@@H](OC(C)=O)[C@@]2(C)O1` here?
Its T/C is 95 % of control.

And the T/C (dose: 12.5 mg/kg/injection, schedule: Q01DX005 (ip), vehicle: saline + Tween-80 + alcohol)?
The T/C was 102 % of control.

Which results are given for `O=C(NC(Cc1cnc[nH]1)C(=O)NC(Cc1ccc(O)cc1)C(=O)O)OCc1ccccc1` (stereo not drawn) (Cbz-His-Tyr-OH; configuration not given here)?
T/C (dose: 50.0 mg/kg/injection, schedule: Q01DX005 (ip), vehicle: Klucel (hydroxypropylcellulose) (HPC)): 93 % of control; T/C (dose: 100.0 mg/kg/injection, schedule: Q01DX005 (ip), vehicle: Klucel (hydroxypropylcellulose) (HPC)): 95 % of control; T/C (dose: 200.0 mg/kg/injection, schedule: Q01DX005 (ip), vehicle: Klucel (hydroxypropylcellulose) (HPC)): 92 % of control

How did the T/C (dose: 2.5 mg/kg/injection, schedule: Q01DX005 (ip), vehicle: Klucel (hydroxypropylcellulose) (HPC)) turn out when `COc1cc2cc3c(c(O)c2c(O)c1/C=C/C(C)C)C(=O)CC(C)(OC(C)=O)C3` (stereo not given) was run?
Its T/C is 103 % of control.

And the T/C (dose: 5.0 mg/kg/injection, schedule: Q01DX005 (ip), vehicle: Klucel (hydroxypropylcellulose) (HPC))?
Its T/C is 117 % of control.

Which T/C (dose: 3.12 mg/kg/injection, schedule: Q01DX009 (ip), vehicle: Klucel (hydroxypropylcellulose) (HPC)) does the source give for `N#CC(C#N)=C/C=C/c1cccc([N+](=O)[O-])c1` here?
Its T/C is 114 % of control.

And the T/C (dose: 6.25 mg/kg/injection, schedule: Q01DX009 (ip), vehicle: Klucel (hydroxypropylcellulose) (HPC))?
The T/C was 123 % of control.

What about the T/C (dose: 8.2 mg/kg/injection, schedule: Q01DX009 (ip), vehicle: Klucel (hydroxypropylcellulose) (HPC)) of the same compound?
Its T/C is 118 % of control.

And the T/C (dose: 25.0 mg/kg/injection, schedule: Q01DX009 (ip), vehicle: Klucel (hydroxypropylcellulose) (HPC))?
The T/C was 100 % of control.

`COC1=C(OC)C(=O)C(SC/C=C(\C)CCCC(C)CCCC(C)CCCC(C)C)=CC1=O` (stereo not given) was tested. Which T/C (dose: 6.25 mg/kg/injection, schedule: Q01DX009 (ip), vehicle: saline with Tween-80) did it give?
The T/C was 105 % of control and 106 % of control and 113 % of control.

Which T/C (dose: 50.0 mg/kg/injection, schedule: Q01DX005 (ip), vehicle: saline) does the source give for `Nc1nnnn1CCCCO` here?
The T/C was 104 % of control.

And the T/C (dose: 100.0 mg/kg/injection, schedule: Q01DX005 (ip), vehicle: saline)?
The T/C was 103 % of control.

What about the T/C (dose: 200.0 mg/kg/injection, schedule: Q01DX005 (ip), vehicle: saline) of the same compound?
The T/C was 111 % of control.

What about the T/C (dose: 400.0 mg/kg/injection, schedule: Q01DX005 (ip), vehicle: saline) of the same compound?
Its T/C is 120 % of control.

Which T/C (dose: 100.0 mg/kg/injection, schedule: Q01DX009 (ip), vehicle: saline with Tween-80) does the source give for `O=C(O)c1ccc2cc3ccccc3cc2c1` here?
Its T/C is 99 % of control.

What about the T/C (dose: 200.0 mg/kg/injection, schedule: Q01DX009 (ip), vehicle: saline with Tween-80) of the same compound?
The T/C was 91 % of control.

Which results are given for `O=C(O)C1=CC(c2ccccc2O)=NCCN1`?
T/C (dose: 15.0 mg/kg/injection, schedule: Q01DX005 (ip), vehicle: saline with Tween-80): 97 % of control and 98 % of control; T/C (dose: 30.0 mg/kg/injection, schedule: Q01DX005 (ip), vehicle: saline with Tween-80): 102 % of control and 105 % of control; T/C [5]: 114 % of control and 97 % of control; T/C [6]: 103 % of control and 107 % of control

With `CCOC(=O)NN` as the compound, how does the T/C (dose: 12.5 mg/kg/injection, schedule: Q01DX009 (ip), vehicle: saline) read?
Its T/C is 111 % of control.

What about the T/C (dose: 25.0 mg/kg/injection, schedule: Q01DX009 (ip), vehicle: saline) of the same compound?
Its T/C is 92 % of control.

What does the source list for `Cc1cc2nc(Nc3nc(C)c(C)c(=O)[nH]3)[nH]c2cc1C`?
T/C [1]: 108 % of control; T/C (dose: 100.0 mg/kg/injection, schedule: Q01DX009 (ip), vehicle: saline): 102 % of control; T/C (dose: 200.0 mg/kg/injection, schedule: Q01DX009 (ip), vehicle: saline): 90 % of control

Which results are given for `O=C1c2ccc(Cl)cc2-n2c1nc1ccccc1c2=O`?
T/C [7]: 100 % of control; T/C [8]: 93 % of control; T/C [9]: 93 % of control

What does the source list for `CC[C@@H](C)[C@@H]1NC(=O)C(NC(=O)C(CC(C)C)N(C)C(=O)C2CCCN2C(=O)C(C)O)C(C)OC(=O)C(Cc2ccc(OC)cc2)N(C)C(=O)C2CCCN2C(=O)C(CC(C)C)NC(=O)C(C)C(=O)C(C(C)C)OC(=O)C[C@H]1O` (stereo not given in full)?
T/C (dose: 0.03 mg/kg/injection, schedule: Q01DX009 (ip), vehicle: none): 171 % of control; T/C (dose: 10.0 micrograms/kg/injection, schedule: Q01DX009 (ip), vehicle: distilled water + alcohol): 112 % of control; T/C (dose: 20.0 micrograms/kg/injection, schedule: Q01DX009 (ip), vehicle: distilled water + alcohol): 112 % of control; T/C (dose: 80.0 micrograms/kg/injection, schedule: Q01DX009 (ip), vehicle: distilled water + alcohol): 155 % of control

`COc1ccc(Br)cc1C1SCC(=O)N1c1nncs1` (stereo not given) was tested. Which T/C [2] did it give?
Its T/C is 101 % of control.

And the T/C [3]?
Its T/C is 101 % of control.

And the T/C [4]?
The T/C was 93 % of control.
